{"source": "patent US9402821B2", "about": "“Methods and pharmaceutical compositions for treatment of cystic fibrosis” (INSERM (Institut National de la sante et de la Recherche …, priority 2012, dated 2016)", "system": "IL-8 promoter", "assay": "IL-8 promoter luciferase reporter / IL-8 mRNA qPCR, TNFα-stimulated cells", "format": "cell-based", "conditions": "TNFα 10 ng/ml; bronchial epithelial cells and heterologous HeLa models (FIGS. 2A, B)", "experimental": "Cells were transiently transfected by the short IL-8 promoter-firefly luciferase reporter and renilla luciferase reference and inflammation was induced by 10 ng/ml TNFα for 1 h. A. HeLa cells were pre-treated with diluent or different doses of sulindac 1 h before inflammation induction and 4 h after. IL-8 promoter activity in cells treated with sulindac+TNFα was expressed in percent of diluent+TNFα. B. After treatment, HeLa Ctr cells were lysed with TRIzol (Invitrogen). Total RNA was extracted, and 1 μg of total RNA was reverse transcribed with a reverse transcription kit. IL-8 mRNA expression was quantified by real-time quantitative PCR (qPCR). The comparative threshold cycle (CT) method was used for relative quantification of PCR products after IL-8 was normalised to TBP (ΔCt=CtIL-8−CtTBP). […] C After treatment, IL-8 in supernatant was measured by ELISA. The IL-8 stimulation of cells treated with test drug +TNFα were expressed as fold compared to drug −TNFα. […]\nCells were lysed with the Passive Lysis Buffer (Promega), and luciferase activity in the cellular extracts was determined by the Dual Luciferase Assay System (Promega) using a luminometer (Tristar; Berthold). The results were normalized to those obtained with the Renilla luciferase reference plasmid used to control the transfection efficiency, and the values were expressed as luminescence intensity (Luciferase/Renilla). […]"}
{"smiles": "CC1=C(CC(=O)O)c2cc(F)ccc2/C1=C\\c1ccc([S+](C)[O-])cc1", "note": "(stereo not shown) [sulindac, (Z)-5-fluoro-2-methyl-1-[p-(methylsulfinyl)benzylidene]-indene-3-acetic acid]", "values": [{"measurement": "IL-8 transcription", "value": "decreased IL-8 transcription"}]}
